Where “and” joins values, the source holds several entries; their conditions need not be identical. Equal values may be shown once.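 Growth conditions: 96-well plates. Treatment: test compound, 48 hours, 5 concentrations. Analysis: linear interpolation between bracketing concentrations; unreached endpoints set to highest concentration. GI50 = concentration required for 50% inhibition of growth. TGI: total growth inhibition.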
Key:
Experiment in all cases: NCI-60 cell line screen, 48 h
CAKI-1 renal = test system: CAKI-1 renal
HCT-116 colon = test system: HCT-116 colon
HOP-62 NSCLC = test system: HOP-62 NSCLC
LOX IMVI melanoma = test system: LOX IMVI melanoma
MCF7 breast = test system: MCF7 breast
MDA-MB-435 = test system: MDA-MB-435
RXF 393 renal = test system: RXF 393 renal
SF-539 CNS = test system: SF-539 CNS
SK-MEL-5 melanoma = test system: SK-MEL-5 melanoma
UACC-257 melanoma = test system: UACC-257 melanoma

SMILES	TGI (CAKI-1 renal)	TGI (HCT-116 colon)	TGI (HOP-62 NSCLC)	TGI (LOX IMVI melanoma)	TGI (MCF7 breast) [µM]	TGI (MDA-MB-435) [µM]	TGI (RXF 393 renal)	TGI (SF-539 CNS)	TGI (SK-MEL-5 melanoma)	TGI (UACC-257 melanoma)	GI50 (CAKI-1 renal) [µM]	GI50 (LOX IMVI melanoma) [µM]	GI50 (MDA-MB-435) [µM]	GI50 (SF-539 CNS) [µM]	GI50 (HOP-62 NSCLC) [µM]	GI50 (RXF 393 renal) [µM]	GI50 (SK-MEL-5 melanoma) [µM]	GI50 (HCT-116 colon) [µM]
Cc1sc2nc3n(c(=O)c2c1C)N=C(c1ccccc1)CS3	> 100 µM	> 100 µM	> 100 µM	> 100 µM	> 100	> 100	> 100 µM	> 100 µM	> 100 µM	> 100 µM								
COc1cccc(/C=N/NC(=O)CN(C)C)c1O	> 100 µM	> 100 µM	> 100 µM	> 100 µM	> 100	> 100	> 100 µM	> 100 µM	> 100 µM	> 100 µM								
CCOC(=O)[C@H](CO)Nc1c(O)c2c(c(O)c1Cl)C(=O)C=CC2=O	> 10 µM	> 10 µM	> 10 µM	> 10 µM	> 10	> 10	> 10 µM	> 10 µM	> 10 µM	> 10 µM								
COC(=O)[C@@H](NC(=O)c1ccc(CNC(=O)/C(C)=C/c2ccccc2)cc1)C(C)C	> 100 µM	> 100 µM	> 100 µM	> 100 µM	> 100	> 100	> 100 µM	> 100 µM	> 100 µM	39 µM								
COc1ccc(Oc2nc3c(N)cc(C(F)(F)F)cc3nc2-c2ccccc2)cc1	44 µM	> 100 µM	49.5 µM	53.6 µM	23.8	> 100	24.9 µM	> 100 µM	> 100 µM	> 100 µM								
O=C(NCCCc1cn[nH]c(=O)n1)c1cccc2nc3ccccc3nc12	> 100 µM	> 100 µM	> 100 µM	> 100 µM	> 100	> 100	> 100 µM	> 100 µM	> 100 µM	> 100 µM								
CN(C)C=Nc1c2c(nc3ccccc13)CCCC2	> 100 µM	> 100 µM	> 100 µM	> 100 µM	> 100	> 100	> 100 µM	> 100 µM	> 100 µM	> 100 µM								
COc1cc(C2c3cc4c(cc3OC(NNc3ccccc3)C2C)OCO4)cc(OC)c1O (stereo unspecified)	> 92 µM	13.5 µM	33.1 µM	19 µM	13.3	3.96	13.7 µM	2.98 µM	3.68 µM	20 µM								
CC(=O)CC12NC(=O)N(C)N=C1N(C)C(=O)N(C)C2=O (stereo unspecified)	> 100 µM	> 100 µM	> 100 µM	40.8 µM	> 100	31	> 100 µM	72.9 µM		40.4 µM								
CCOC(=O)[C@@]12NN=N[C@@H]1[C@H]1CO[C@H](c3ccccc3)N1C2=O	24.8 µM	32.5 µM	30.6 µM	4.92 µM	25.3	35.6	13.9 µM	25.3 µM	24.5 µM	19.7 µM								
Cc1ccc(O)cc1 (tested in a mixture with another compound)	> 100 µM	> 100 µM	> 100 µM	> 100 µM	> 100	> 100	> 100 µM	> 100 µM	> 100 µM	> 100 µM								
Cc1csc2c(=O)n(COCc3ccccc3)c(=O)[nH]c12	> 100 µM	> 100 µM	> 100 µM	> 100 µM	> 100	> 100	> 100 µM	> 100 µM	> 100 µM	> 100 µM								
CC(=O)OC12OC(C)(C3C(=O)N(c4ccccc4)C(=O)C31)N(c1ccccc1)C2=O (stereo unspecified)	> 100 µM	> 100 µM	> 100 µM	> 100 µM	> 100	> 100	> 100 µM	> 100 µM	> 100 µM	> 100 µM								
O=C1[C@H](O)[C@@H]2CCC[C@@]23CCCN13	> 100 µM	> 100 µM	> 100 µM	> 100 µM	> 100	> 100	> 100 µM	> 100 µM	> 100 µM	> 100 µM								
CN(C)C1(c2cc3ccccc3s2)CCCCC1	> 100 µM	> 100 µM	> 100 µM	60.9 µM	> 100	> 100	84.6 µM	> 100 µM	33.3 µM	80.4 µM								
COc1cc(/C=C/c2ccc(S(N)(=O)=O)cc2)cc(OC)c1	47.3 µM	27.5 µM	62.7 µM	34 µM	75.1	40	34.1 µM	46.2 µM	29.8 µM	46.8 µM	19	18.2	18.7	18.8				

SMILES	TGI (CAKI-1 renal)	TGI (HCT-116 colon)	TGI (HOP-62 NSCLC)	TGI (LOX IMVI melanoma)	TGI (MCF7 breast) [µM]	TGI (MDA-MB-435) [µM]	TGI (RXF 393 renal)	TGI (SF-539 CNS)	TGI (SK-MEL-5 melanoma)	TGI (UACC-257 melanoma)	GI50 (CAKI-1 renal) [µM]	GI50 (LOX IMVI melanoma) [µM]	GI50 (MDA-MB-435) [µM]	GI50 (SF-539 CNS) [µM]	GI50 (HOP-62 NSCLC) [µM]	GI50 (RXF 393 renal) [µM]	GI50 (SK-MEL-5 melanoma) [µM]	GI50 (HCT-116 colon) [µM]
N#Cc1c(O)c(C=O)c(=O)n2c1[nH]c1ccccc12	> 100 µM	> 100 µM	> 100 µM	> 100 µM	> 100	> 100	> 100 µM	> 100 µM	> 100 µM	> 100 µM								
CC(=O)N1CCN(CCCCN2c3ccccc3Sc3cc(N=[N+]=[N-])ccc32)CC1	24.9 µM	26.7 µM	27.4 µM	30.9 µM	28.9	29	24.4 µM	31.8 µM		40.2 µM								
CC1=C(C(=O)NCCCN(CCO)CCO)CC(C(=O)NCCCN(CCO)CCO)=C(C)N1	> 100 µM	> 100 µM	> 100 µM	> 100 µM	> 100	> 100	> 100 µM	> 100 µM	95.7 µM	> 100 µM								
CCOC(=O)C(NC(=O)c1ccccc1)(Nc1ccc(S(=O)(=O)Nc2ccc(OC)nn2)cc1)C(F)(F)F (stereo unspecified)	> 100 µM	> 100 µM	> 100 µM	> 100 µM	> 100	> 100	> 100 µM	> 100 µM	> 100 µM	> 100 µM								
Nc1nc(N)c2nc(CNc3ccc(C(=O)NC(CCNC(=O)c4ccccc4C(=O)O)C(=O)O)cc3)cnc2n1 (stereo unspecified)	> 100 µM	> 100 µM	> 100 µM	> 100 µM	> 100	> 100	> 100 µM		> 100 µM	> 100 µM	0.0666	0.00439		0.0574	0.0635	0.967	0.0853	
N#CCN1CCCN(CC#N)CCN(CC#N)CCCN(CC#N)CC1	> 100 µM	> 100 µM	> 100 µM	65.8 µM	> 100	> 100	> 100 µM	> 100 µM	> 100 µM	> 100 µM								
Cn1c(=O)oc2cc(C(=S)N3CCCCC3)ccc21	> 100 µM	> 100 µM	> 100 µM	> 100 µM	> 100	> 100	> 100 µM	> 100 µM	> 100 µM	> 100 µM								
O=C1C=CC(=O)[C@H]2C3C=CC(C4C3C3(Cl)C(Cl)=C(Cl)[C@]4(Cl)C3(Cl)Cl)[C@@H]12 (stereo partly specified)	30.2 µM	12.9 µM	31.1 µM	11.7 µM	13.4	7.02	13.8 µM	17.9 µM	15.3 µM	6.23 µM								
c1ccc(Sc2nc(Sc3ccccc3)nc(Sc3ccccc3)n2)cc1	> 100 µM	> 100 µM	> 100 µM	> 100 µM	> 100	> 100	> 100 µM	> 100 µM	> 100 µM	> 100 µM								
NC(CS)C(=O)NCCNc1ccc(NCCNC(=O)C(N)CS)c2c1C(=O)c1c(O)ccc(O)c1C2=O (stereo unspecified)	0.566 µM and 0.104 µM	0.261 µM and 0.154 µM	0.03 µM and 0.0483 µM	0.205 µM and 0.165 µM	1.21	1.86	0.554 µM and 0.455 µM	0.728 µM and 0.193 µM	1.33 µM and 0.373 µM	2.41 µM and 2.29 µM		0.0149				0.103	0.0231	0.0176
O=[N+]([O-])c1ccc2c(N=Nc3ccc4ccccc4c3O)c(O)cc(S(=O)(=O)O)c2c1	> 80.6 µM	> 100 µM	99.7 µM	> 90.2 µM	> 100	> 100	> 100 µM	> 28.5 µM	53.6 µM	> 100 µM								
NCCN(CCN)/[N+]([O-])=N/O	> 100 µM	> 100 µM	> 100 µM	> 100 µM	> 100	> 100	> 100 µM	> 100 µM	> 100 µM	> 100 µM								
CCOC(=O)CCC(C(=O)OCC)n1nnc2ccc(Nc3c(C)[n+]([O-])c4cc(F)c(OCC)cc4[n+]3[O-])cc21 (stereo unspecified)	> 100 µM	> 100 µM	> 100 µM	> 100 µM	68.6	> 100	> 100 µM	64.4 µM	> 100 µM	42 µM								
N#CC(C#N)C1CN2CCC1CC2 (stereo unspecified)	> 100 µM	> 100 µM	> 100 µM	> 100 µM	> 100	> 100	> 100 µM	> 100 µM	> 100 µM	> 100 µM								
Clc1ccc(Nc2nnc(CNc3ccc(-c4nnc(Nc5ccc(Cl)cc5)o4)cc3)o2)cc1	33.9 µM	33.7 µM	35.1 µM	20.7 µM	34.9	30.6	34.6 µM	36.3 µM	33.4 µM	50.6 µM								

From PubChem BioAssay (NCI)
